Test results reported in patent publication US20140242599A1, “MATERIALS AND METHODS FOR DETERMINING SENSITIVITY POTENTIAL OF COMPOUNDS” (ELECTROPHORETICS LIMITED, priority 2011, published 2014).

What was measured:
[1] = system: Heat shock 70 kDa protein 1 (HSP70, HSPA1A; HSPA1B); experiment: HSP70-specific ELISA of keratinocyte cell extracts; format: cell-based; settings: primary human keratinocytes, 24 h exposure, FIG. 3
[2] = system: Aldo-keto reductase family 1, member C2 (AKR1C2); experiment: Western Blot quantification of AKR1C2 in keratinocyte cell extracts; format: cell-based; settings: primary human keratinocytes, 24 h exposure, FIG. 4
Protocol: (§1) Primary human keratinocytes were obtained from Provitro (Berlin, Germany). Cells were seeded at 3×10E5 cells per 10 cm dish. Cells were grown in serum free supplemented keratinocyte growth medium (Provitro) to 80-90% density prior to treatment. Cells were grown at 37° C. in 5% CO2. Second and third passages post-cryopreserved seedings were used for experiments
(§2) Test chemicals were added and the plates were incubated for 24 hours at 37° C. in a 5% CO2 humidified incubator. When a chemical was dissolved in DMSO, a final concentration of 0.1% DMSO was used in the relevant negative control. After 24 h incubation, cells were harvested and washed twice in PBS.
Cells were lysed in four volumes of 100 mM TEAB (triethylammonium bicarbonate), pH 8.5+0.1, 1 mM TCEP (tris[2-carboxyethyl]phosphine*HCl), 0.1% SDS. After suspending the cell pellet in lysis buffer the suspension was heated at 95° C. for ten minutes in a thermomixer ([Eppendorf, Thermomixer comfort). […]
(§3) As an alternative approach to find predictive markers for sensitizing potential we measured the concentration of biomarkers using commercially available immunoassays to measure the levels of three biomarkers. The three proteins to be measured by Western Blot or ELISA were selected on the basis of a review of literature references to biomarkers of stress toxicity pathways. […]

[3] = mouse, in vivo; cited from earlier work
Nrf2 pathway = settings: cited from earlier work
[4] = system: Metallothionein-1G (MT1G); experiment: Western Blot quantification of MT1G in keratinocyte cell extracts; format: cell-based; settings: primary human keratinocytes, 24 h exposure, FIG. 5
Protocol: as §1, §2
Cells were lysed in four volumes of 100 mM TEAB (triethylammonium bicarbonate), pH 8.5+0.1, 1 mM TCEP (tris[2-carboxyethyl]phosphine*HCl), 0.1% SDS. […]
as §3
. […] Effects of contact sensitizers and irritants on MT1G production was determined by Western Blot analysis using MT1G specific antibodies (clone UC1MT, Biozol, Eching, Germany). […]

[5] = system: Primary human keratinocytes; experiment: TMT proteomic profiling of exposed keratinocytes, PLS score plot of 102 protein biomarkers; format: cell-based; settings: second study, four donors, FIG. 2
[6] = system: luciferase gene under the control of the ARE of the AKR1C2 gene in HaCaT keratinocytes; settings: screen of 43 sensitizers and 24 non-sensitizers; cited from earlier work

Compound	HSP70 induction (ELISA) [1]	AKR1C2 induction (Western Blot) [2]	LLNA EC3 (%) [3] [%]	LLNA outcome / sensitizer potency class [3]	reactivity of BDKs, NEHKs and THP-1 (Nrf2 pathway) (Nrf2 pathway)	MT1G induction (Western Blot) [4]	relative distance from the centre of the PLS score plot (size of response) [5]	KeratinoSens identification of sensitizer [6]
O=CC=Cc1ccccc1 [CA, 3-phenyl-2-Propenal]	most strongly induced	only induced in CA exposed samples	2.8	(moderate)	–	–	–	–
O=[N+]([O-])c1ccc(Cl)c([N+](=O)[O-])c1 [DNCB, 1-chloro-2,4-dinitrobenzene]	small	–	–	–	high reactivity	–	–	–
CN(C)C(=S)SSC(=S)N(C)C [TMTD, Tetramethyl thiuram disulfide]	most strongly induced	–	5.2	(moderate)	–	most strongly induced	smaller distance to the centre of the plot	–
O=C(Oc1ccccc1)c1ccccc1 [phenyl benzoate]	–	–	–	–	–	–	–	false negative
